Measurements taken from US20240016895A1, “HEPCIDIN MIMETICS FOR TREATMENT OF SICKLE CELL DISEASE” (Protagonist Therapeutics, Inc., priority 2022, published 2024).
“Also recorded” adds a separate entry of the source. Where a SMILES comes first, the peptide text is derived from it.

How the values were obtained:
Assay type in all cases: in vivo
[1] = test system: Townes SCD mice; experiment: Complete blood count (hematological parameters) in Townes SCD mice treated for 4 weeks; settings: for % Retics / Abs Retics / HCT / HGB / MCH / MCHC / MCV / RBC: 4 weeks
Experimental: (§1) Compound 46, a hepcidin mimetic, was administered subcutaneously at 1.0 mg/kg (group 3, N=9) or 2.5 mg/kg (group 4, N=9) in Townes SCD mice. 36 Townes SCD and 6 129S1/SvlmJ (wild-type), female mice, 5 weeks old upon delivery. A control group of wild-type mice (groups 1, N=6) was treated with vehicle as well as another SCD mice (group 2, N=9). All mice were dosed three times per week (TIW). All mice were maintained on an iron-adjusted diet (TD.140258, 35 ppm iron) throughout the study. Collections and necropsies were performed 24 hours post-last dose of compound or vehicle. After 4 weeks on study, animals from each group were euthanized, EDTA whole blood collected for CBC and serum was collected for hemolysis biomarker analysis. Spleens and livers were weighed at terminus. Liver, spleen, kidney, heart and brain were collected for future analysis. Serum and urine were collected to analyze chemistry markers, such as bilirubin, LDH (lactate dehydrogenase), haptoglobin, urine creatinine, urine total protein and urine urea nitrogen.
As shown in FIG. 4A and FIG. 4B, reticulocytes were counted both with the automated analyzer as well as manually from a new methylene blue stained blood smear by counting the number of positive stained cells encountered in 500 erythrocytes and calculating the percentage.

[2] = test system: Townes SCD mice; experiment: Serum RBC hemolysis biomarkers (total bilirubin, LDH) in Townes SCD mice treated for 4 weeks; settings: for LDH / Total bilirubin: serum, 4 weeks
Experimental: as §1
Serum total bilirubin and serum lactate dehydrogenase are hemolysis biomarkers.

[3] = test system: Townes SCD mice; experiment: Spleen and liver weights and organ to body weight ratios at terminus in Townes SCD mice
Experimental: as §1, with “Compound 46, a hepcidin mimetic, was administered subcutaneously at 1.0 mg/kg (group 3, N=9) or 2.5 mg/kg (group 4, N=9) in Townes SCD mice.” left out

[4] = Dose 1 (mg/kg subcutaneously TIW)
[5] = Dose 2.5 (mg/kg subcutaneously TIW)

CCCCCCCCCCCCCCCC(=O)N[C@@H](CCC(=O)NCCCC[C@@H]1NC(=O)[C@H]([C@@H](C)CC)NC(=O)[C@@H](NC(=O)[C@@H]2CCCN2C(=O)[C@H](Cc2ccccc2)NC(=O)[C@H](Cc2cnc[nH]2)NC(=O)[C@@H](NC(=O)[C@H](CCC(=O)O)NC(=O)CC(C)C)[C@@H](C)O)CSSC[C@@H](C(=O)N[C@@H](CCCCN)C(N)=O)NC(=O)CNC(=O)[C@H](CCCCN)NC(=O)[C@H](CO)NC(=O)[C@H](CCCNC(=N)N)NC(=O)[C@@H]2CCCN2C(=O)[C@H](CCC(=O)O)NC(=O)[C@H](Cc2ccccc2)NC1=O)C(=O)O [Compound 46, Isovaleric_Acid-ETHFPCI(K(IsoGlu_Palm))FEPRSKGCK-NH2] (HELM PEPTIDE1{[CC(C)CC(=O)[*:2]].E.T.H.F.P.C.I.K.F.E.P.R.S.K.G.C.K.[am]}|PEPTIDE2{[CCCCCCCCCCCCCCCC(=O)[*:2]].[gGlu]}$PEPTIDE1,PEPTIDE2,9:R3-2:R2|PEPTIDE1,PEPTIDE1,7:R3-17:R3$$$V2.0) was tested, and the RBC count ([1]; 2.5 mg/kg dose, result in words, FIG. 3A) was “significantly reduced”, the “Percent of reticulocytes compared to vehicle control” value ([1]; 2.5 mg/kg dose, result in words, FIG. 4B) was “decreased percent of reticulocytes significantly” and the “Mean corpuscular hemoglobin concentration (MCHC) compared to vehicle control” value ([1]; 2.5 mg/kg, result in words, FIG. 6B) was “significant increase in MCHC”. For the same compound, the “% Retics” value [1, 4] was 65.78 ± 12.23%, the “Abs Retics” value [1, 4] was 2612 ± 627.9 K/uL and the HCT [1, 4] was 29.62 ± 3.45 %. It also gave an HGB [1, 4] of 5.89 ± 0.93 g/dL, an MCH [1, 4] of 9.89 ± 0.45 pg and an MCHC [1, 4] of 19.82 ± 1.65 g/dL. For the same compound, the MCV [1, 4] was 50.11 ± 3.41 fL, the RBC [1, 4] was 5.94 ± 0.78 M/uL and the “% Retics” value [1, 5] was 50.33 ± 6.73 %. The “Abs Retics” value [1, 5] was 1195 ± 246.5 K/uL, the HCT [1, 5] was 16.27 ± 7.23 % and the HGB [1, 5] was 4.39 ± 0.36 g/dL. For the same compound, the MCH [1, 5] was 9.82 ± 0.63 pg, the MCHC [1, 5] was 23.22 ± 3.10 g/dL and the MCV [1, 5] was 42.56 ± 3.81 fL. The RBC [1, 5] was 4.49 ± 0.55 M/uL, the Hgb level ([1]; result in words, FIG. 3B) was “significantly reduced in all three dose groups” and the “Hematocrit (HCT)” value ([1]; result in words, FIG. 5A) was “significant reduction of HCT in a dose dependent manner”. For the same compound, the “Mean corpuscular volume (MCV) compared to the vehicle group” value ([1]; result in words, FIG. 5B) was “significant reduction of MCV in a dose dependent manner”, the “Mean corpuscular hemoglobin (MCH) compared to vehicle control” value ([1]; result in words, FIG. 6A) was “significant reduction in MCH” and the “White blood cell (WBC) count” value ([1]; result in words, FIG. 7A) was “significant WBC and lymphocyte reduction in a dose dependent manner; also recorded: alleviated elevated white blood cell (WBC) and lymphocytes counts”. For the same compound, the Lymphocyte count ([1]; result in words, FIG. 7B) was “significant WBC and lymphocyte reduction in a dose dependent manner; also recorded: alleviated elevated white blood cell (WBC) and lymphocytes counts”, the Neutrophil count ([1]; result in words, FIG. 8A) was “significantly decreased neutrophil count in a dose dependent manner; also recorded: alleviated elevated neutrophil and monocyte counts” and the Monocyte count ([1]; result in words, FIG. 8B) was “alleviated elevated neutrophil and monocyte counts”. For the same compound, the Serum total bilirubin ([2]; result in words, FIG. 9A) was “significantly reduced both parameters in a dose dependent manner”, the “Serum lactate dehydrogenase (LDH)” value ([2]; result in words, FIG. 9B) was “significantly reduced both parameters in a dose dependent manner” and the LDH [2, 4] was 610.6 ± 341.0 U/L. It also gave a Total bilirubin [2, 4] of 2.16 ± 0.34 mg/dL, an LDH [2, 5] of 372.3 ± 70.96 U/L and a Total bilirubin [2, 5] of 1.13 ± 0.37 mg/dL. The “Liver Weight” value ([3]; SCD mice, Dose 1) was 1.290 g, the “Liver:BW Ratio” value ([3]; SCD mice, Dose 1) was 0.0633 g/g and the “Spleen Weight” value ([3]; SCD mice, Dose 1) was 1.035 g. The “Spleen:BW Ratio” value ([3]; SCD mice, Dose 1) was 0.0508 g/g, the “Liver Weight” value ([3]; SCD mice, Dose 2.5) was 1.138 g and the “Liver:BW Ratio” value ([3]; SCD mice, Dose 2.5) was 0.0573 g/g. The “Spleen Weight” value ([3]; SCD mice, Dose 2.5) was 0.725 g, the “Spleen:BW Ratio” value ([3]; SCD mice, Dose 2.5) was 0.0365 g/g and the “Liver Weight” value ([3]; SCD mice, Dose 7.5) was 0.758 g. The “Liver:BW Ratio” value ([3]; SCD mice, Dose 7.5) was 0.0549 g/g, the “Spleen Weight” value ([3]; SCD mice, Dose 7.5) was 0.301 g and the “Spleen:BW Ratio” value ([3]; SCD mice, Dose 7.5) was 0.0217 g/g. The “Spleen weights compared to vehicle” value ([3]; SCD mice, result in words, FIG. 1A) was “significantly and dose-dependently lower”, the “Spleen to body weight ratios compared to vehicle” value ([3]; SCD mice, result in words, FIG. 1B) was “significantly and dose-dependently lower” and the “Liver weight compared to vehicle treated SCD mice” value ([3]; SCD mice, result in words, FIG. 2A) was “significantly lower in a dose dependent manner”. For the same compound, the “Liver to body weight ratios compared to vehicle treated SCD mice” value ([3]; SCD mice, result in words, FIG. 2B) was “significantly lower in a dose dependent manner”, the Spleen size ([3]; Townes SCD mice, figure legend FIG. 1A/1B) was “reduces spleen size” and the Liver size ([3]; Townes SCD mice, figure legend FIG. 2A/2B) was “reduces liver size”.
